Legend:
Assay type in all cases: biochemical
JAK3 = biological target: T1, JAK3 (Homo sapiens, UniProt P52333); experiment: JAK3 Inhibition Assay (Omnia kinase fluorescence peptide substrate assay); conditions: averaged IC50 ranges; assay of Example D; 10 μM (Km app) or 1 mM ATP, 2.5 nM JAK3
T1 construct: purchased Invitrogen Corporation, Carlsbad, Calif; PV4080
T1 sequence (P52333 1-1124): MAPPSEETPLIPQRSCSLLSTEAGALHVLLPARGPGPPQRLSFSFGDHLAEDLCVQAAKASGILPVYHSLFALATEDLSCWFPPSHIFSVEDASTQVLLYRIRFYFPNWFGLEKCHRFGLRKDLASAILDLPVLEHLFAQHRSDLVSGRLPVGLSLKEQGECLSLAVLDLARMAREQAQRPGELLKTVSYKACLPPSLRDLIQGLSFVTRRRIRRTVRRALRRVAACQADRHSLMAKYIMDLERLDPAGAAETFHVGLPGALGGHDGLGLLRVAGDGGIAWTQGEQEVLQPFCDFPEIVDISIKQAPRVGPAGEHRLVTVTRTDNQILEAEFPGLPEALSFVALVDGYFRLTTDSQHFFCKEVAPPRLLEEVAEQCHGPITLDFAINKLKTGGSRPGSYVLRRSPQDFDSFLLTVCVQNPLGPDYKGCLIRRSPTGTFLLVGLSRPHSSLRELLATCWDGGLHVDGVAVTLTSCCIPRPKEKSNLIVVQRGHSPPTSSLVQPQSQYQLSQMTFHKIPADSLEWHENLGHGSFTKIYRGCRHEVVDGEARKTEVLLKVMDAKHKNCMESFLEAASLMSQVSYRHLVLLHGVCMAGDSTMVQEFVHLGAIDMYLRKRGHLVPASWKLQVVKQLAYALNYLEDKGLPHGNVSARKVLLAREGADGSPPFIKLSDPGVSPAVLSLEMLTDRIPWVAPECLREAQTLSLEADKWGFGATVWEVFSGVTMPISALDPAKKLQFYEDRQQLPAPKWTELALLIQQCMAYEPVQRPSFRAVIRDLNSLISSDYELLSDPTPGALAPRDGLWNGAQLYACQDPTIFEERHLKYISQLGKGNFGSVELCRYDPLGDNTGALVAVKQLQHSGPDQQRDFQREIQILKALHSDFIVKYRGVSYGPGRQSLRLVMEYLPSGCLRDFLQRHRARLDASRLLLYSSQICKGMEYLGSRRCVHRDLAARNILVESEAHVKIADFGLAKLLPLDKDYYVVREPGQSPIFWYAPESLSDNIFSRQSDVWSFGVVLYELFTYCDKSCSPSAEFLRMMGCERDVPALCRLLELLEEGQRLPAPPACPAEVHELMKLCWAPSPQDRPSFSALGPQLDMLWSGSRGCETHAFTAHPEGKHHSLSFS
From the text: (§1) The assays described in Examples A, B, C and D for the determination of Tyk2, JAK1, JAK2 and JAK3 kinase activity, respectively, utilized the Omnia® Kinase fluorescence peptide substrate-based technology (Invitrogen). The specific components of the assay mixture are described in Examples A, B, C and D. In these assays, Mg^2+ is chelated upon phosphorylation of the Omnia peptide by the kinase to form a bridge between the chelation-enhanced fluorophore Sox and the phosphate, resulting in an increase in fluorescence emission at 485 nm when excited at […]. The reactions were therefore read at excitation 360 nm and emission was measured at 485 nm every 50 seconds for 45 minutes using a PerkinElmer EnVision Multilabel Plate Reader.
(§2) The final buffer conditions for Tyk2, JAK1, JAK2, and JAK3 assays were as follows: 25 mM HEPES, pH 7.4, 10 mM MgCl2, 0.01% Triton X-100 and 1 mM DTT.
(§3) Compounds were prepared at 50× the final concentration in DMSO by conducting 3-fold serial dilutions from a 500-μM intermediate dilution to give a 10-point dosing curve having a high dose of 10 μM. Two-μL aliquots of these were transferred to a fresh plate for a ten-fold intermediate dilution with assay buffer. Five-μL aliquots of the diluted compounds were then transferred to 20-μL of assay mixtures described in Examples A, B, C and D for a final concentration of DMSO of 2%. A standard or reference compound was typically included on each assay plate to validate that plate. For each plate, percent of control (POC) values were calculated for each well according to the following equation:
(§4) where Xmax=Average Uninhibited Controls • Xmin=Average Background IC50's were estimated from the POC's using a standard 4-parameter logistic model:
(§5) where • A=Minimum Y (Bottom Asymptote) • B=Maximum Y (Top Asymptote) • C=EC50 • D=Slope Factor • X=Compound Concentration (nM) • Y=POC
(§6) The IC50 is defined as the concentration of inhibitor at which the POC equals 50 for the fitted curve.
(§7) Compounds of Formula I were screened for their ability to inhibit JAK3 using the general enzyme inhibition assay method, in which the assay mixture contained 10 μM (Km app) or 1 mM ATP, 10 μM Omnia® Y7 peptide (Catalog #IVGN KNZ3071C, Invitrogen Corporation, Carlsbad, Calif.) and 2.5 nM JAK3 in a total volume of 20 μL. JAK3 was purchased from Invitrogen Corporation, Carlsbad, Calif. (catalog #IVGN PV4080).

Human Tyk2 kinase domain = biological target: T2, Human Tyk2 kinase domain (Homo sapiens, UniProt P29597); experiment: Tyk2 Inhibition Assay (Omnia kinase fluorescence peptide substrate assay); conditions: averaged IC50 ranges; assay of Example A; 10 μM (Km app) or 1 mM ATP, 2 nM Tyk2
T2 construct: comprising amino acids 886 to 1187 with 10 additional histidine residues; 10xHis (histidine tag) (C, cleaved yes); made in house
T2 sequence (P29597 886-1187): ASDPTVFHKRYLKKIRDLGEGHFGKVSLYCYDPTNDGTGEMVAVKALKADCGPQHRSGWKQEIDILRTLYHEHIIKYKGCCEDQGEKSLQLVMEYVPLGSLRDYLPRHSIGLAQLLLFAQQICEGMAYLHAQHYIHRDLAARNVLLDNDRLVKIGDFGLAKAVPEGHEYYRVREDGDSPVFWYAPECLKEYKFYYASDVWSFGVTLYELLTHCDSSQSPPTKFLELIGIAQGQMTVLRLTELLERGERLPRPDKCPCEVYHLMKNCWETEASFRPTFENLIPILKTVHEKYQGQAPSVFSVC
From the text: as §1, §2, §3, §4, §5, §6
Compounds of Formula I were screened for their ability to inhibit Tyk2 using the general enzyme inhibition assay method, in which the assay mixture contained 10 μM (Km app) or 1 mM ATP, 8 μM Omnia® Y12 peptide (Catalog #IVGN KPZ3121C; Invitrogen Corporation, Carlsbad, Calif.) and 2 nM Tyk2 in a total volume of 20 μL. Human Tyk2 kinase domain, comprising amino acids 886 to 1187 with 10 additional histidine residues (histidine tag) on the carboxy terminus, was expressed and purified from bacculovirus in-house at Array BioPharma Inc. (Boulder, Colo.). The histidine tag was cleaved after purification using standard conditions.

JAK2 = biological target: T3, JAK2 (Homo sapiens, UniProt O60674); experiment: JAK2 Inhibition Assay (Omnia kinase fluorescence peptide substrate assay); conditions: averaged IC50 ranges; assay of Example C; 25 μM (Km app) or 1 mM ATP, 5 nM JAK2
T3 construct: purchased Invitrogen Corporation, Carlsbad, Calif; PV4288
T3 sequence (O60674 whole entry): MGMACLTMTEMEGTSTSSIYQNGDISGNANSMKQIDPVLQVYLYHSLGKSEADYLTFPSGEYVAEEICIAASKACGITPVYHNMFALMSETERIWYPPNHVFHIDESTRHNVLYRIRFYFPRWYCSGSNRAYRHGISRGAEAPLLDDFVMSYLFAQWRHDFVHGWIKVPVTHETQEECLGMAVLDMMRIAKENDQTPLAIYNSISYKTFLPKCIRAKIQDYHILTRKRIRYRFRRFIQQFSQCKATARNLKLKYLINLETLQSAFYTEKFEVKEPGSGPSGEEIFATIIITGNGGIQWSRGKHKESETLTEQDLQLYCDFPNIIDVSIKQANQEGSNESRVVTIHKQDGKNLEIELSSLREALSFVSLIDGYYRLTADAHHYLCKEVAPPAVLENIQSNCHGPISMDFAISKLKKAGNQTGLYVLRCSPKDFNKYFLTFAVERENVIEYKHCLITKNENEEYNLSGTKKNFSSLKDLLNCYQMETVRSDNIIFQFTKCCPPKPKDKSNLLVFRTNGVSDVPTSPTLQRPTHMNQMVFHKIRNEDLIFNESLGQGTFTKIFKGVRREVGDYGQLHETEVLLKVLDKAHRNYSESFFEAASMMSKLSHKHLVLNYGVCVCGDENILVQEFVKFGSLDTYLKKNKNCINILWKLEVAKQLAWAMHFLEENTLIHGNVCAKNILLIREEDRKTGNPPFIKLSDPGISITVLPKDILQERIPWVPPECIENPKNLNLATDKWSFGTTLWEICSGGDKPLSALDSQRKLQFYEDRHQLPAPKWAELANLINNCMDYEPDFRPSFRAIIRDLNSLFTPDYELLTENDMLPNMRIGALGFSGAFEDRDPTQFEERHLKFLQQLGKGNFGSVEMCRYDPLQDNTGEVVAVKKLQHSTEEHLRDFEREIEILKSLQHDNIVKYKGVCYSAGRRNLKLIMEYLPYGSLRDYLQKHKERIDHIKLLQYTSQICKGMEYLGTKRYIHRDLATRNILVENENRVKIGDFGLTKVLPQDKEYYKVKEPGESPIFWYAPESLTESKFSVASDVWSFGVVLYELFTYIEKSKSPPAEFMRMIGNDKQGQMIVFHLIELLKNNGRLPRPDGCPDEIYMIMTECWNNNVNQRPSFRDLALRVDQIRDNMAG
From the text: as §1, §2, §3, §4, §5, §6
as §7, with “inhibit JAK2” for “inhibit JAK3”, “contained 25” for “contained 10”, “and 5” for “and 2.5”, “nM JAK2” for “nM JAK3”, “μL. JAK2” for “μL. JAK3”, “#IVGN PV4288).” for “#IVGN PV4080).”

JAK1 = biological target: T4, JAK1 (Homo sapiens, UniProt P23458); experiment: JAK1 Inhibition Assay (Omnia kinase fluorescence peptide substrate assay); conditions: averaged IC50 ranges; assay of Example B; 40 μM (Km app) or 1 mM ATP, 15 nM JAK1
T4 construct: purchased Invitrogen Corporation, Carlsbad, Calif; PV4775
T4 sequence (P23458 whole entry): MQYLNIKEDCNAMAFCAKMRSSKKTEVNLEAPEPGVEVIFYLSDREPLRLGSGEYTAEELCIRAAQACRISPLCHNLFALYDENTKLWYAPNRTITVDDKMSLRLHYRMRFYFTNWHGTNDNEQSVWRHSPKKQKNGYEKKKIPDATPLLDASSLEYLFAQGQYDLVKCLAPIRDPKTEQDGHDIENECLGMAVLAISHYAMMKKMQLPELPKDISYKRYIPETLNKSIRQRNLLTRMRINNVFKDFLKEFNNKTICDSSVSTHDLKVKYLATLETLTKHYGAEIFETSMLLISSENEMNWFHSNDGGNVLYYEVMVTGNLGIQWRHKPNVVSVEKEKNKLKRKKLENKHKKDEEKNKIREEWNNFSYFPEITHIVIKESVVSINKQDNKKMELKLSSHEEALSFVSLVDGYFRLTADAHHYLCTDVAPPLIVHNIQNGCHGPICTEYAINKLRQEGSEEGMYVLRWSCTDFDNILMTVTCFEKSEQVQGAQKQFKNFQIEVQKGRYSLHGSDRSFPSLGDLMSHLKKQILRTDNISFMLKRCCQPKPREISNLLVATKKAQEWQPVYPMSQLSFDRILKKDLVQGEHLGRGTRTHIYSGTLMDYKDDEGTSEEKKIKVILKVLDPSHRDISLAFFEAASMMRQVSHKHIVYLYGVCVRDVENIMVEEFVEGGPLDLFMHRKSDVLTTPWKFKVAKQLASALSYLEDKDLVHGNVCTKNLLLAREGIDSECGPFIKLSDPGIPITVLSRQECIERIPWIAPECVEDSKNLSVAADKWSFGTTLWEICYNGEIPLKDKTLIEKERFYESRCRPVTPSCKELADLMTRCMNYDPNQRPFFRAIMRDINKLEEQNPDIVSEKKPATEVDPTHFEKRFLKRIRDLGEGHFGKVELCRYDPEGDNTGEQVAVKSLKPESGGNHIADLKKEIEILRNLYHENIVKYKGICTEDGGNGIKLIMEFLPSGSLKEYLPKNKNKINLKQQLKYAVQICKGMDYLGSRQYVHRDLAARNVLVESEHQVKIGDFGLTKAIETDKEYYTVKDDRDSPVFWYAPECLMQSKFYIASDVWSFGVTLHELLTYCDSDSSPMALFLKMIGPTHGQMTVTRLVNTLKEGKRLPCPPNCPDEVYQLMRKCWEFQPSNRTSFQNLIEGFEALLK
From the text: as §1, §2, §3, §4, §5, §6
Compounds of Formula I were screened for their ability to inhibit JAK1 using the general enzyme inhibition assay method, in which the assay mixture contained 40 μM (Km app) or 1 mM ATP, 8 μM Omnia® Y12 peptide (Catalog #IVGN KPZ3121C; Invitrogen Corporation, Carlsbad, Calif.) and 15 nM JAK1 in a total volume of 20 μL. JAK1 was purchased from Invitrogen Corporation, Carlsbad, Calif. (catalog #IVGN PV4775).

SMILES	IC50 (JAK3)	IC50 (Human Tyk2 kinase domain)	IC50 (JAK2)	IC50 (JAK1)
Cn1cc(-c2cc3nccn3c(-c3cnn(C(CC#N)CC#N)c3)n2)cn1 [Example 1, 3-(4-(7-(1-methyl-1H-pyrazol-4-yl)imidazo[1,2-c]pyrimidin-5-yl)-1H-pyrazol-1-yl)pentanedinitrile]	100 to 1000 nM	< 10 nM	10 to 100 nM	10 to 100 nM
Cn1cc(-c2cc3nccn3c(-c3cnn(CCC#N)c3)n2)cn1 [Example 19, 3-(4-(7-(1-methyl-1H-pyrazol-4-yl)imidazo[1,2-c]pyrimidin-5-yl)-1H-pyrazol-1-yl)propanenitrile]	> 1000 nM	10 to 100 nM	100 to 1000 nM	100 to 1000 nM
Cn1cc(-c2cc3nccn3c(-c3cnn(C4(CC#N)CC5(CCCC5)C4)c3)n2)cn1 [Example 161, 2-(2-(4-(7-(1-methyl-1H-pyrazol-4-yl)imidazo[1,2-c]pyrimidin-5-yl)-1H-pyrazol-1-yl)spiro[3.4]octan-2-yl)acetonitrile]	> 1000 nM	< 10 nM	10 to 100 nM	100 to 1000 nM
Cn1cc(-c2cc3ncc(Cl)n3c(-c3cnn(C4(CC#N)CN(S(=O)(=O)C(F)(F)F)C4)c3)n2)cn1 [Example 155, 2-(3-(4-(3-chloro-7-(1-methyl-1H-pyrazol-4-yl)imidazo[1,2-c]pyrimidin-5-yl)-1H-pyrazol-1-yl)-1-((trifluoromethyl)sulfonyl)azetidin-3-yl)acetonitrile]	100 to 1000 nM	< 10 nM	10 to 100 nM	10 to 100 nM
CC(C)(CC#N)n1cc(-c2nc(-c3ccc(N4CCOCC4)cc3)cc3nccn23)cn1 [Example 116, 3-methyl-3-(4-(7-(4-morpholinophenyl)imidazo[1,2-c]pyrimidin-5-yl)-1H-pyrazol-1-yl)butanenitrile]	> 1000 nM	10 to 100 nM	100 to 1000 nM	100 to 1000 nM
Cn1cc(-c2cc3nccn3c(-c3cnn(C4(CC#N)CN(S(C)(=O)=O)C4)c3)n2)cn1 [Example 92, 2-(3-(4-(7-(1-methyl-1H-pyrazol-4-yl)imidazo[1,2-c]pyrimidin-5-yl)-1H-pyrazol-1-yl)-1-(methylsulfonyl)azetidin-3-yl)acetonitrile]	> 1000 nM	< 10 nM	10 to 100 nM	100 to 1000 nM
N#CCC(C1CC1)n1cc(-c2nc(-c3cncs3)cc3nccn23)cn1 (stereo not drawn) [Example 47, 3-Cyclopropyl-3-(4-(7-(thiazol-5-yl)imidazo[1,2-c]pyrimidin-5-yl)-1H-pyrazol-1-yl)propanenitrile]	> 1000 nM	10 to 100 nM	100 to 1000 nM	100 to 1000 nM
Cn1cc(-c2ccc(-c3cc4nccn4c(-c4cnn(C(CC#N)C5CC5)c4)n3)cc2)cn1 (stereo not drawn) [Example 60, 3-Cyclopropyl-3 (4 (7 (4 (1 methyl-1H-pyrazol-4-yl)phenyl)imidazo[1,2-c]pyrimidin-5-yl)-1H-pyrazol-1-yl)propanenitrile]	100 to 1000 nM	< 10 nM	10 to 100 nM	10 to 100 nM
Cn1cc(-c2cc3ncc(F)n3c(-c3cnn(C4(CC#N)CN(S(=O)(=O)C(F)(F)F)C4)c3)n2)cn1 [Example 154, 2-(3-(4-(3-fluoro-7-(1-methyl-1H-pyrazol-4-yl)imidazo[1,2-c]pyrimidin-5-yl)-1H-pyrazol-1-Y1)-1-((trifluoromethyl)sulfonyl)azetidin-3-yl)acetonitrile]	100 to 1000 nM	< 10 nM	< 10 nM	10 to 100 nM
N#CCC(C1CC1)n1cc(-c2nc(-c3ccc(N4CCOCC4)cc3)cc3nccn23)cn1 (stereo not drawn) [Example 117, 3-cyclopropyl-3-(4-(7-(4-morpholinophenyl)imidazo[1,2-c]pyrimidin-5-yl)-1H-pyrazol-1-yl)propanenitrile]	100 to 1000 nM	< 10 nM	10 to 100 nM	10 to 100 nM
N#CCC1(n2cc(-c3nc(-c4cnn(C5COC5)c4)cc4nccn34)cn2)CN(CC(F)F)C1 [Example 156, 2-(1-(2,2-difluoroethyl)-3-(4-(7-(1-(oxetan-3-yl)-1H-pyrazol-4-yl)imidazo[1,2-c]pyrimidin-5-yl)-1H-pyrazol-1-yl)azetidin-3-yl)acetonitrile]	> 1000 nM	< 10 nM	10 to 100 nM	100 to 1000 nM
CCCN1CCC(CC#N)(n2cc(-c3nc(-c4cnn(C)c4)cc4nccn34)cn2)CC1 [Example 30, 2-(4-(4-(7-(1-methyl-1H-pyrazol-4-yl)imidazo[1,2-c]pyrimidin-5-yl)-1H-pyrazol-1-yl)-1-propylpiperidin-4-yl)acetonitrile]	> 1000 nM	100 to 1000 nM	> 1000 nM	> 1000 nM

— patent US8962596B2 (Array BioPharma Inc., priority 2010, dated 2015)
